Assay results reported in patent US20220056037A1 (SPV THERAPEUTICS INC., priority 2018, published 2022).

Legend:
Type in all cases: cell-based
all cell lines tested = assay: 2D cell proliferation assay (CellTiter-Blue), geometric mean over the panel; conditions: geometric mean of all individual IC50 values of Table 4; read-out: Geomean abs. IC50 value
Description: Viability of the cells was analyzed by using the CellTiter-Blue® Cell Viability Assay (Promega), and was performed according to manufacturer's instructions. Briefly, cells were harvested from exponential phase cultures (Chapter 6.6), counted and plated in 96-well flat-bottom microtiter plates at a cell density of 4,000-60,000 cells/well in a volume of 140 μl per well. After a 24 hours recovery period, 10 μL cell culture medium (six control wells/plate) or culture medium with test compound were added (Chapter 6.2). The compounds were applied at five concentrations in full-log increments up to 100 μM in duplicate. Cultures were incubated at 37° C. and 5% CO2 in a humidified atmosphere for another three days. After three days of treatment, 20 μl/well CellTiter-Blue® reagent was added. Following incubation with CellTiter-Blue® reagent for up to four hours, fluorescence (FU) was measured by using the Enspire Multimode Plate Reader (excitation λ=570 nm, emission λ=600 nm). […]
(§1) If an IC50 or IC70 value could not be determined within the examined dose range (because a compound was either too active or lacked activity), the lowest or highest concentration studied was used for calculation of the geometric mean value.
The overall potency of a compound was determined by the geometric mean IC50/IC70 values of all individual IC50/IC70 values. […]

CEXF HeLa = assay: 2D cell proliferation assay (CellTiter-Blue); conditions: Homo sapiens, 72 h; cell line CEXF HeLa; three days of treatment; read-out: IC (abs. IC50)
Description: (§2) Viability of the cells was analyzed by using the CellTiter-Blue® Cell Viability Assay (Promega), and was performed according to manufacturer's instructions. Briefly, cells were harvested from exponential phase cultures (Chapter 6.6), counted and plated in 96-well flat-bottom microtiter plates at a cell density of 4,000-60,000 cells/well in a volume of 140 μl per well. After a 24 hours recovery period, 10 μL cell culture medium (six control wells/plate) or culture medium with test compound were added (Chapter 6.2). The compounds were applied at five concentrations in full-log increments up to 100 μM in duplicate. Cultures were incubated at 37° C. and 5% CO2 in a humidified atmosphere for another three days. After three days of treatment, 20 μl/well CellTiter-Blue® reagent was added. Following incubation with CellTiter-Blue® reagent for up to four hours, fluorescence (FU) was measured by using the Enspire Multimode Plate Reader (excitation λ=570 nm, emission λ=600 nm). For calculations, the mean values of duplicate/sextuplicate (untreated control) data were used.
(§3) Drug effects were expressed in terms of the percentage of the fluorescence signal, obtained by comparison of the mean signal in the treated wells with the mean signal of the untreated controls (expressed by the test-versus-control value, T/C-value [%]):
(§4) IC values are reported as relative IC50 values and absolute IC50 and IC70 values. […] The absolute IC70 value gives the concentration of the test compound that achieves T/C=30%. The relative IC50 value is the concentration of test compound that gives a response half way between the top and bottom plateau of the sigmoidal concentration-response curve (inflection point of the curve). Calculation was done by 4parameter non-linear curve fit (Oncotest Data Warehouse Software).
as §1
(§5) The overall potency of a compound was determined by the geometric mean IC50/IC70 values of all individual IC50/IC70 values. In the heatmap representation of IC50 and IC70 values, the distribution of the IC50 or IC70 values obtained for a test compound in the individual cell lines is given in relation to the geometric mean […] or IC70 value, obtained over all PDX models tested. The individual IC values range from 1/32-fold geometric mean IC (corresponding to very potent compound activity or high tumor sensitivity) to 32-fold geometric mean IC (corresponding to lack of compound activity or tumor resistance). The heatmap presentation, therefore, represents an antiproliferative “fingerprint” profile of a test compound.

CXF HT-29 = assay: 2D cell proliferation assay (CellTiter-Blue); conditions: Homo sapiens, 72 h; cell line CXF HT-29; three days of treatment; read-out: IC (abs. IC50)
Description: as §2, §3, §4, §1, §5

LEXFAL MOLT-4 = assay: 2D cell proliferation assay (CellTiter-Blue); conditions: Homo sapiens, 72 h; cell line LEXFAL MOLT-4; three days of treatment; read-out: IC (abs. IC50)
Description: as §2, §3, §4, §1, §5

OVXF SK-OV-3 = assay: 2D cell proliferation assay (CellTiter-Blue); conditions: Homo sapiens, 72 h; cell line OVXF SK-OV-3; three days of treatment; read-out: IC (abs. IC50)
Description: as §2, §3, §4, §1, §5

MEXF WM-266-4 = assay: 2D cell proliferation assay (CellTiter-Blue); conditions: Homo sapiens, 72 h; cell line MEXF WM-266-4; three days of treatment; read-out: IC (abs. IC50)
Description: as §2, §3, §4, §1, §5

LIXFH HEP-3B = assay: 2D cell proliferation assay (CellTiter-Blue); conditions: Homo sapiens, Hep3B, 72 h; cell line LIXFH HEP-3B; three days of treatment; read-out: IC (abs. IC50)
Description: as §2, §3, §4, §1, §5

MAXFHER SK-BR-3 = assay: 2D cell proliferation assay (CellTiter-Blue); conditions: Homo sapiens, 72 h; cell line MAXFHER SK-BR-3; three days of treatment; read-out: IC (abs. IC50)
Description: as §2, §3, §4, §1, §5

LEXFCL MEC-1 = assay: 2D cell proliferation assay (CellTiter-Blue); conditions: Homo sapiens, MEC1, 72 h; cell line LEXFCL MEC-1; three days of treatment; read-out: IC (abs. IC50)
Description: as §2, §3, §4, §1, §5

MEXF MDA-MB-435 = assay: 2D cell proliferation assay (CellTiter-Blue); conditions: Homo sapiens, 72 h; cell line MEXF MDA-MB-435; three days of treatment; read-out: IC (abs. IC50)
Description: as §2, §3, §4, §1, §5

LXFL NCI-H460 = assay: 2D cell proliferation assay (CellTiter-Blue); conditions: Homo sapiens, 72 h; cell line LXFL NCI-H460; three days of treatment; read-out: IC (abs. IC50)
Description: as §2, §3, §4, §1, §5

CXF Caco-2 = assay: 2D cell proliferation assay (CellTiter-Blue); conditions: Homo sapiens, 72 h; cell line CXF Caco-2; three days of treatment; read-out: IC (abs. IC50)
Description: as §2, §3, §4, §1, §5

MEXF M14 = assay: 2D cell proliferation assay (CellTiter-Blue); conditions: 72 h; cell line MEXF M14; three days of treatment; read-out: IC (abs. IC50)
Description: as §2, §3, §4, §1, §5

PAXF BxPC-3 = assay: 2D cell proliferation assay (CellTiter-Blue); conditions: Homo sapiens, 72 h; cell line PAXF BxPC-3; three days of treatment; read-out: IC (abs. IC50)
Description: as §2, §3, §4, §1, §5

LEXFAM MV4-11 = assay: 2D cell proliferation assay (CellTiter-Blue); conditions: Homo sapiens, 72 h; cell line LEXFAM MV4-11; three days of treatment; read-out: IC (abs. IC50)
Description: as §2, §3, §4, §1, §5

MAXFTN MDA-MB-453 = assay: 2D cell proliferation assay (CellTiter-Blue); conditions: Homo sapiens, 72 h; cell line MAXFTN MDA-MB-453; three days of treatment; read-out: IC (abs. IC50)
Description: as §2, §3, §4, §1, §5

MMXF U-266 = assay: 2D cell proliferation assay (CellTiter-Blue); conditions: Homo sapiens, 72 h; cell line MMXF U-266; three days of treatment; read-out: IC (abs. IC50)
Description: as §2, §3, §4, §1, §5

MAXFHER BT-474 = assay: 2D cell proliferation assay (CellTiter-Blue); conditions: Homo sapiens, 72 h; cell line MAXFHER BT-474; three days of treatment; read-out: IC (abs. IC50)
Description: as §2, §3, §4, §1, §5

Structure (SMILES): CN1CCN(c2ccc(Nc3ncc4cc(C(=O)N(C)C)n(C56CC(C5)C6)c4n3)cc2)CC1 [SPV113]
- IC50 (all cell lines tested): 391 nM
- IC50 (CEXF HeLa): 329 nM
- IC50 (CXF HT-29): 437 nM
- IC50 (LEXFAL MOLT-4): 567 nM
- IC50 (OVXF SK-OV-3): 3150 nM
- IC50 (MEXF WM-266-4): 3300 nM
- IC50 (LIXFH HEP-3B): 367 nM
- IC50 (MAXFHER SK-BR-3): 2040 nM
- IC50 (LEXFCL MEC-1): ≤ 10 nM
- IC50 (MEXF MDA-MB-435): 296 nM
- IC50 (LXFL NCI-H460): 291 nM
- IC50 (CXF Caco-2): ≥ 100000 nM
- IC50 (MEXF M14): 1010 nM
- IC50 (PAXF BxPC-3): 193 nM
- IC50 (LEXFAM MV4-11): ≤ 10 nM
- IC50 (MAXFTN MDA-MB-453): 177 nM
- IC50 (MMXF U-266): 655 nM
- IC50 (MAXFHER BT-474): 802 nM
